Assay results: US9113629B2, “4-amino-6-(4-substituted-phenyl)-picolinates and 6-amino-2-(4-substituted-phenyl)-pyrimidine-4-carboxylates and their use as herbicides” (DOW AGROSCIENCES LLC, priority 2013, dated 2015)
Where two headings read alike, the source gives them in different places.

What was measured:
[1] = test system: Key Grass and Sedge Weeds as well as Grass Crops; test: Post-emergent Test II herbicidal activity (Table 6); assay type: in vivo; conditions: post-emergence, 336 h; for pest or weed control at 70 g/ha: application rate 70 g ai/ha; for pest or weed control at 140 g/ha: application rate 140 g ai/ha
In short: (§1)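 Greenhouse-grown plants at first or second true leaf stage were sprayed post-emergence with compound in acetone/DMSO-based aqueous spray containing crop oil concentrate and surfactant, at 187 L/ha, highest rate plus ½× to 1/16× dilutions. After 14 d, injury was scored visually versus untreated plants, 0 (none) to 100% (complete kill).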

[2] = test system: Key Broadleaf Weed and Crop Species; test: Post-emergent Test II herbicidal activity (Table 5); assay type: in vivo; conditions: post-emergence, 336 h, post-emergent, 14 days after application; for pest or weed control at 70 g/ha: 70 g ai/ha; for pest or weed control at 140 g/ha: 140 g ai/ha
In short: as §1

[3] = CYPES: yellow nutsedge (Cyperus esculentus), read-out: Visual Growth Reduction (%) 14 Days After Application, CYPES
[4] = DIGSA: crabgrass (Digitaria sanguinalis), read-out: Visual Growth Reduction (%) 14 Days After Application, DIGSA
[5] = ECHCG: barnyardgrass (Echinochloa crus-galli), read-out: Visual Growth Reduction (%) 14 Days After Application, ECHCG
[6] = ORYSA: rice (Oryza sativa), read-out: Visual Growth Reduction (%) 14 Days After Application, ORYSA
[7] = SETFA: giant foxtail (Setaria faberi), read-out: Visual Growth Reduction (%) 14 Days After Application, SETFA
[8] = SORVU: grain sorghum (Sorghum vulgare), read-out: Visual Growth Reduction (%) 14 Days After Application, SORVU
[9] = TRZSS (wheat, Triticum aestivum), read-out: Visual Growth Reduction (%) 14 Days After Application, TRZSS
[10] = ZEAMX: maize, corn (Zea mays), read-out: Visual Growth Reduction (%) 14 Days After Application, ZEAMX
[11] = ABUTH: velvetleaf (Abutilon theophrasti), read-out: Visual Growth Reduction (%) 14 Days After Application ABUTH
[12] = AMARE: redroot pigweed (Amaranthus retroflexus), read-out: Visual Growth Reduction (%) 14 Days After Application AMARE
[13] = BRSNN: oilseed-rape, canola (Brassica napus), read-out: Visual Growth Reduction (%) 14 Days After Application BRSNN
[14] = CHEAL: lambsquarters (Chenopodium album), read-out: Visual Growth Reduction (%) 14 Days After Application CHEAL
[15] = EPHHL: wild poinsettia (Euphorbia heterophylla), read-out: Visual Growth Reduction (%) 14 Days After Application EPHHL
[16] = HELAN: sunflower (Helianthus annuus), read-out: Visual Growth Reduction (%) 14 Days After Application HELAN
[17] = VIOTR: wild pansy (Viola tricolor), read-out: Visual Growth Reduction (%) 14 Days After Application VIOTR

In the case of `C=Cc1c(N)nc(-c2ccc(C(F)(F)F)c(F)c2)nc1C(=O)O` [Compound 32, 6-Amino-2-(3-fluoro-4-(trifluoromethyl)phenyl)-5-vinylpyrimidine-4-carboxylic acid], the melting point is reported as 168 to 171 °C, the pest or weed control at 70 g/ha [1, 3] is reported as 0 to 29% and the pest or weed control at 140 g/ha [1, 3] is reported as 45 to 59%. For the same compound, the pest or weed control at 70 g/ha [1, 4] was 0 to 29%, the pest or weed control at 140 g/ha [1, 4] was 0 to 29% and the pest or weed control at 70 g/ha [1, 5] was 75 to 84%. The pest or weed control at 140 g/ha [1, 5] was 75 to 84%, the pest or weed control at 70 g/ha [1, 6] was 0 to 29% and the pest or weed control at 140 g/ha [1, 6] was 0 to 29%. For the same compound, the pest or weed control at 70 g/ha [1, 7] was 0 to 29%, the pest or weed control at 140 g/ha [1, 7] was 0 to 29% and the pest or weed control at 70 g/ha [1, 8] was 60 to 74%. The pest or weed control at 140 g/ha [1, 8] was 60 to 74%, the pest or weed control at 70 g/ha [1, 9] was 0 to 29% and the pest or weed control at 140 g/ha [1, 9] was 0 to 29%. The pest or weed control at 70 g/ha [1, 10] was 45 to 59%, the pest or weed control at 140 g/ha [1, 10] was 60 to 74% and the pest or weed control at 70 g/ha [2, 11] was 60 to 74%. The pest or weed control at 140 g/ha [2, 11] was 60 to 74%, the pest or weed control at 70 g/ha [2, 12] was 75 to 84% and the pest or weed control at 140 g/ha [2, 12] was 95 to 100%. The pest or weed control at 70 g/ha [2, 13] was 0 to 29%, the pest or weed control at 140 g/ha [2, 13] was 45 to 59% and the pest or weed control at 70 g/ha [2, 14] was 95 to 100%. The pest or weed control at 140 g/ha [2, 14] was 95 to 100%, the pest or weed control at 70 g/ha [2, 15] was 95 to 100% and the pest or weed control at 140 g/ha [2, 15] was 95 to 100%. It also gave a pest or weed control at 70 g/ha [2, 16] of 85 to 94%, a pest or weed control at 140 g/ha [2, 16] of 85 to 94% and a pest or weed control at 70 g/ha [2, 17] of 0 to 29%. It also gave a pest or weed control at 140 g/ha [2, 17] of 0 to 29%.
